Measured values as given in patent publication US20220002288A1, “MONOBACTAM COMPOUNDS AND USE THEREFOR” (priority 2018, published 2022).
Values after ≈ are worked out from the molar mass of the structure shown. Counter-ions that a name gives are not always drawn. Like-named read-outs stand apart in the source and are kept apart here.

Columns and labels:
[1] = test system: Acinetobacter baumannii; assay: In vitro antibacterial activity, minimum inhibitory concentration (MIC); format: cell-based
Method: (§1) Compounds: The compounds prepared in the above examples and comparative examples. All test compounds were dissolved and diluted with DMSO, and the final concentrations were prepared as 64, 32, 16, 8, 4, 2, 1, 0.5, 0.25, 0.125, 0.0625 μg/mL in the experiment.
(§2) Bacterial strains: 6 strains of Acinetobacter baumannii (codenames: HDBAB-YK4, HDBAB-YK7, HDBAB-YK12, HDBAB-YK16, HDBAB_OXA_7, ATCC 19606), 2 strains of Pseudomonas aeruginosa (codenames: HDBPA-YK9, HDBPA)-YK15), 1 strain of Escherichia coli (codename: CLB30048), all provided by HD Biosciences (Shanghai) Co., Ltd.
(§3) Medium: Trypticase soy agar (TSA) (BD BBL 211043), and Cation-adjusted Mueller Hinton broth (CAMHB) (BD BBL212322).
(§4) The bacteria used for the minimum inhibitory concentration (MIC) test were stored frozen at −80° C., and needed 2 days to recover before use. A small amount of frozen bacteria was scraped with a sterile inoculation loop for streak inoculation on a TSA solid medium petri dish. The dish was placed in an ordinary incubator at 35±2° C. for 20-24 hours. 5-10 Colonies with similar morphologies were picked from the above-mentioned petri dish with a sterile inoculating loop for streak inoculation again on a TSA solid medium petri dish. The dish was then placed in an ordinary incubator at 35±2° C. for 20-24 hours.
(§5) 1.02×CAMHB liquid medium was taken out from a 4° C. refrigerator and placed at room temperature for preheating. 5-10 Individual bacterial colonies were picked from the solid petri dish of the above Section 2.1 and re-suspended in 500 μL of 0.9% NaCl, and then the OD600 was adjusted to 0.1-0.15 with a spectrophotometer. Then the bacteria were diluted 400 times with 1.02×CAMHB (two-step dilution method: firstly diluting 10 times, then diluting 40 times).
(§6) The number of inoculated bacteria can be obtained by counting the colonies on the petri dish (see Section 2.4).
(§7) One compound was arranged in each row of a 96-well test plate: the highest test concentration for each compound was 64 μg/mL, which was diluted by a factor of two.
(§8) Growth control (GC): 1.02×CAMHB and dimethyl sulfoxide (DMSO) containing bacterial inoculum, no compound.
(§9) Sterile control (SC): Containing 1.02×CAMHB and DMSO, no compound.
(§10) All test compounds were dissolved and diluted with DMSO. 50 μL of 3.2 mg/mL of each test compound was transferred to the initial well (A1-H1) of the dilution plate, and then 25 μL of DMSO was transferred to other wells. The test compounds were sequentially diluted by a factor of 2 from column 1 to column 11 (i.e. drawing 25 μL of test compound from column 1 to column 2 and mixing well, and then drawing 25 μL of test compound from column 2 to column 3 and mixing well, and then drawing 25 μL of test compound from column 3 to column 4 and mixing well, and so on, until diluting to column 11).
(§11) 2 μL of the compound was transferred from the compound plate to the corresponding well of the test plate. Meanwhile, 2 μL of 100% DMSO was transferred to the compound-free wells (the GC and SC wells).
(§12) 98 μL of the corresponding bacterial inoculum was added to the test plate (except for the SC well).
(§13) 98 μL of 1.02×CAMHB medium was added to the SC well of the test plate.
(§14) After the system was added, the test plate was covered with a sterile lid, centrifuged at 800 rpm for 30 seconds, then shaken on a plate shaker at 400 rpm for 1 minute for mixing well, and then placed in an incubator at 35±2° C. for 20 hours.
(§15) The inoculated bacteria were gradient diluted by 10 folds with the liquid medium, from 10^−1 to 10^−3. 100 μL of the above bacterial dilution was spread evenly on a TSA petri dish, 2 replicates for each dilution. After the medium was absorbed by TSA for 10 minutes, the petri dishes were reversed and incubated in an incubator at 35±2° C. for 24 hours.
(§16) A compound management system was turned on to check whether the barcode and compound arrangement of each test plate were correct. […]

[2] = test system: Escherichia coli; assay: as above; format: cell-based; details: strain CLB30048, read-out: MIC
Method: as §1, §2, §3, §4, §5, §6, §7, §8, §9, §10, §11, §12, §13, §14, §15, §16

[3] = test system: Pseudomonas aeruginosa; assay: as above; format: cell-based
Method: as §1, §2, §3, §4, §5, §6, §7, §8, §9, §10, §11, §12, §13, §14, §15, §16

[4] = Pharmacokinetics of the compounds in mice; format: in vivo, BALB/c mice; details: mouse, plasma, male BALB/c mice, single intravenous dose 2 mg/kg, plasma; for Vd: male, BALB/c, iv, 2 mg/kg
Source text: Animals: male BALB/c mice, SPF grade, purchased from Changzhou Cavens Experimental Animal Co., Ltd.; 16-24 g, license number: SCXK (Su)2016-0010; 2 to 3 days of adaptation period were given before the experiment.
Instruments: API 4500 High Performance Liquid Chromatograph Coupled Triple Quadrupole Mass Spectrometer, and Analyst QS A01.01 Chromatography Workstation were both purchased from AB SCIEX of the United States; Milli-Q ultrapure water device was purchased from Millipore; CF16R XII desktop high-speed refrigerated centrifuge was purchased From Hitachi Company; Qilinbeier Vortex-5 oscillator was purchased from IKA Company of German; electric heating constant-temperature water bath was purchased from Changzhou Guohua Electric Appliance Co., Ltd.; electric pipette was purchased from Thermo Company of American; and microanalysis balance was purchased from Shanghai Mettler Co., Ltd.
2 mg of the test compound was weighed, added to physiological saline, vortexed for 2 min, and ultrasonicated for 3 min, to prepare a test solution with a concentration of 0.2 mg/mL for intravenous administration.
A single dose of 2 mg/kg of the test compound was administered to BALB/c mice via the tail vein, the dose volume being 0.1 mL/10 g. At 5 min, 15 min, 30 min, 1 h, 2 h, 4 h after administration, blood samples were collected from the orbital venous plexus into heparinized EP tubes (0.6 mL), which were temporarily placed on crushed ice.
The samples were centrifuged at 8000 rpm for 5 min. 15 μL of upper plasma were transferred to a 96-well plate. 150 μL of methanol:acetonitrile (v/v=1:1) (containing 20 ng/mL tolbutamide) was added to 15 μL of plasma, shaken for 3 min, and centrifuged at 4500 rpm for 5 min. 100 μL of supernatant was taken to a 2 mL deep well plate. 100 μL of diluent (pure water) was added. The samples were shaken for 3 min, and centrifuged at 4500 rpm for 5 min. 180 μL of the supernatant was transferred to the sample plate. The content of the compound in the supernatant sample was analyzed by LC-MS/MS, and various pharmacokinetic parameters were calculated with WinNonlin software.

[5] = test system: Acinetobacter baumannii, Pseudomonas aeruginosa, and Escherichia coli; assay: In vitro antibacterial activity, summary statements over all strains of Experimental Example 1; format: cell-based; details: method of Experimental Example 1
Method: as §1, §2
The minimum inhibitory concentration (MIC) of each compound was recorded according to the guidelines of the Clinical and Laboratory Standards Institute.

Compound | MIC ([1]; ATCC19606, strain ATCC 19606) [µg/mL] | MIC ([1]; strain HDBAB-YK4) [µg/mL] | MIC ([1]; strain HDBAB-YK7) [µg/mL] | MIC ([1]; strain HDBAB-YK12) [µg/mL] | MIC ([1]; strain HDBAB-YK16) [µg/mL] | MIC ([1]; strain HDBAB_OXA_7) [µg/mL] | MIC [2] [µg/mL] | MIC ([3]; strain HDBPA-YK9) [µg/mL] | MIC ([3]; strain HDBPA-YK15) [µg/mL] | Vd ([4]; read-out: VSS) [L/kg] | Vd ([4]; read-out: Vd) [L/kg] | AUC(0-inf) [4] [ng·h/mL] | AUC(0-t) [4] [ng·h/mL] | C0 [4] [ng/mL] | clearance [4] [mL/min/kg] | half-life [4] [min] | in vitro antibacterial activity (in words) [5]
CC1(C)[C@H](NC(=O)/C(=N\O[C@@H](COc2ccc(-c3cn4[n+](c3)CC(OCCCN)C4)cc2)C(=O)O)c2csc(N)n2)C(=O)N1OS(=O)(=O)[O-] (stereo partly drawn) [Example 3, (3S)-3-((Z)-2-(((1S)-2-(4-(2-(3-aminopropoxy)-2,3-dihydro-1H-pyrazolo[1,2-a]pyrazol-4-ium-6-yl)phenoxy)-1-carboxyethoxy)imino)-2-(2-aminothiazol-4-yl)acetylamino)-2,2-dimethyl-4-oxoazetidin-1-yl Sulfate] | 2 | 2 | 2 | 2 | 16 | 8 | 4 | 16 | > 64 | 0.26 | 0.35 | 2310 | 2300 | 8650 | 14.5 | 16.8 | excellent antibacterial activity
C[n+]1cc(-c2ccc(OC[C@H](O/N=C(\C(=O)N[C@@H]3C(=O)N(OS(=O)(=O)[O-])C3(C)C)c3csc(N)n3)C(=O)O)cc2)ccc1NC(=O)[C@@H](N)CCN [Example 9] | 2 (≈ 2.67 µM) | 2 (≈ 2.67 µM) | 0.25 (≈ 0.333 µM) | 1 (≈ 1.33 µM) | 8 (≈ 10.7 µM) | 8 (≈ 10.7 µM) | 2 (≈ 2.67 µM) | 8 (≈ 10.7 µM) | > 64 |  |  |  |  |  |  |  | excellent antibacterial activity
